Assay results published in patent publication US9763963B2, “Topically active steroids for use in interstitial pulmonary fibrosis” (Soligenix, Inc., priority 2008, dated 2017).
Values joined by “and” are separate entries in the source; they are usually repeats but may differ in a detail not shown here. Equal values may be shown once.

Tests used:
[1] = BDP and 17-BMP in plasma of right atrial blood after oral BDP; conditions: oral BDP 2 mg
Description: Pharmacokinetic parameters were calculated using WinNonlin v. […] Plasma concentration-time data were plotted and non-compartmental parameters were calculated using the linear trapezoidal rule. Estimates for half-lives were obtained using regression analysis by specifying an appropriate range of time points for the most linear portions of the log concentration-linear time data.

[2] = bioavailability study of oral BDP, given orally and intravenously to 12 healthy subjects
[3] = system: gastrointestinal graft-versus-host disease (GVHD); conditions: cited from earlier work
[4] = system: pulmonary infection; experiment: pulmonary infections after randomization (record review); format: in vivo, human
Description: (§1) While blinded to randomization assignment, investigators reviewed all patients' pulmonary radiologic records accumulated from the time of randomization to one year after transplantation. The medical records of all patients with abnormal pulmonary radiological findings were reviewed to determine whether the pulmonary disease was a clinically significant noninfectious or infectious syndrome. Clinically significant noninfectious pulmonary syndromes included idiopathic pneumonia syndrome (IPS), defined as widespread alveolar injury in the absence of active lower respiratory tract infection after HCT (Freudenberger T D et al., Blood, 2003; 102:3822-3828, diffuse alveolar hemorrhage (DAH), defined as IPS with bronchioalveolar lavage showing progressively bloodier return, or biopsy-proven cryptogenic organizing pneumonia (COP) otherwise known as bronchiolitis obliterans organizing pneumonia (BOOP). Clinically significant pulmonary infection required microbiologic documentation of an infectious agent in the respiratory tract via bronchoscopy or resolution of pulmonary abnormalities after empirical antibiotic therapy with no addition of immunosuppressive agents.

[5] = system: pulmonary function (FVC, FEV1, TLC, DLCO); experiment: pulmonary function testing after allogeneic HCT, oral BDP versus placebo; format: in vivo, human
Description: Patients whose symptoms were controlled at study day ten continued on study drug while the prednisone dose was rapidly tapered. Patients whose symptoms required additional prednisone were considered treatment failures. Study drug was discontinued on the day of treatment failure. The duration of treatment with study drug was 30 days with a 10-day follow-up period in the first trial and 50 days with a 30-day follow-up period in the second trial.
Pulmonary function assessments included forced vital capacity (FVC), one-second forced expiratory volume (FEV1), total lung capacity (TLC), and carbon monoxide diffusion capacity (DLCO), which was adjusted for hemoglobin level at the time PFTs were obtained. All PFT values were expressed as a percent of the predicted value calculated according to published equations (Crapo R O et al., Am Rev Respir Dis, 1981; 123:659-664; Crapo R O et al., Am Rev Respir Dis, 1981; 123:185-189). Pretransplantation and Day 80 PFTs were obtained, regardless of the presence or absence of symptoms. After discharge, patients were encouraged to return at one year after transplantation, at which time another PFT was obtained. For purposes of the current study, PFTs performed between days 60 and 100 were considered as valid for the Day 80 PFT and tests performed between days 265 and 465 as valid for the one-year PFT. Change in lung function was assessed by comparing PFT parameters performed prior to start of conditioning to those obtained post-transplantation at Day 80 and one year. Analysis of change in lung function was done on an intent-to-treat basis, by randomization assignment to oral BDP or placebo, with maintenance of the study blind.

[6] = system: noninfectious pulmonary complications; experiment: noninfectious pulmonary complications after randomization (record review); format: in vivo, human
Description: as §1

[7] = pre-HCT baseline to transplant day 80

CCC(=O)O[C@]1(C(=O)CO)[C@@H](C)C[C@H]2[C@@H]3CCC4=CC(=O)C=C[C@]4(C)[C@@]3(Cl)[C@@H](O)C[C@@]21C [17-BMP, 17-beclomethasone monopropionate]
time of peak concentration in right atrial blood, median ([1]; study Day 50, four patients): 1.5 h
median half-life ([1]; study Day 50, range 3.1-6.8): 6.3 h
median Cm ([1]; study Day 50, range 632-3701): 1738 pg/mL
total oral bioavailability ([2]; active metabolite after oral BDP, unpublished data): 21-41%

beclomethasone 17,21-dipropionate [BDP]
patients who developed noninfectious pulmonary infiltrative disorders ([3]; 80-day study period, placebo 12/67 (18%)): 0/62
multiple bacteremic episodes ([3]; most recent trial, placebo 9%): none
fungal infections ([3]; most recent trial, placebo 14%): 7%
cytomegalovirus reactivations ([3]; most recent trial, placebo 39%): 28%
reduction in mortality risk ([3]; one-year post-randomization): 45%
cases of pulmonary infection ([4]; first 200 days after randomization): 6
cases of pulmonary infection ([4]; first year after randomization, 60 patients, placebo 11): 8
share of first-year pulmonary infections that occurred in the first 200 days ([4]; in vivo): 75%
intravenous dexamethasone dose of equivalent systemic exposure ([2]; oral BDP 2 mg): less than 1 mg
oral prednisone dose of equivalent systemic exposure ([2]; oral BDP 2 mg): 2.5 mg
DLCO: mean decrease from baseline to one year ([5]; 32 patients with data, placebo 15.27%, p=0.11): 7.67%
DLCO, pulmonary function at one year ([5]; mean, n = 33): 78.1% of predicted normal values
FEV1, pulmonary function at one year ([5]; mean, n = 33): 85.9% of predicted normal values
FVC, pulmonary function at one year ([5]; mean, n = 33): 89.4% of predicted normal values
TLC, pulmonary function at one year ([5]; mean, n = 33): 95.7% of predicted normal values
DLCO, pulmonary function at Day 80 ([5]; mean, n = 54): 86.0% of predicted normal values
TLC, pulmonary function at Day 80 ([5]; mean, n = 55): 96.9% of predicted normal values
FEV1, pulmonary function at Day 80 ([5]; mean, n = 56): 90.3% of predicted normal values
FVC, pulmonary function at Day 80 ([5]; mean, n = 56): 93.8% of predicted normal values
FEV1: mean change ([5]; pre-HCT baseline to day 80, percent of predicted, range −22, +34, p 0.48): −0.05
TLC: mean change ([5]; pre-HCT baseline to day 80, percent of predicted, range −25, +57, p 0.23): +1.41
FVC: mean change ([5]; pre-HCT baseline to day 80, percent of predicted, range −30, +35, p 0.26): +0.34
FEV1: % of patients who experienced a decrease [5, 7]: (50) %
FVC: % of patients who experienced a decrease [5, 7]: (50) %
TLC: % of patients who experienced a decrease [5, 7]: (58) %
DLCO: N, proportion of patients who experienced a decrease ([5]; pre-HCT baseline to transplant day 80, p 0.02): 27 of 49 and 27/49
FVC: N, proportion of patients who experienced a decrease ([5]; pre-HCT baseline to transplant day 80, p 0.66): 25/50
FEV1: N, proportion of patients who experienced a decrease ([5]; pre-HCT baseline to transplant day 80, p 0.83): 25/50
TLC: N, proportion of patients who experienced a decrease ([5]; pre-HCT baseline to transplant day 80, p 0.88): 29/50
noninfectious events ([6]; after Day 200): four
cases of noninfectious pulmonary complications ([6]; first 200 days after randomization, 60 patients, placebo four): no cases
day of noninfectious event ([6]; in order: COP/BOOP, IPS, bronchiolitis obliterans syndrome, DAH): 207 days and 212 days and 244 days and 269 days
